Laboratory results: paper PMC4805651, “Inhibition of DNA–Topoisomerase I by Acylated Triterpene Saponins from Pittosporum angustifolium Lodd” (Natural Products and Bioprospecting, 2016)

Legend:
[1] = target: T1, human topoisomerase I (Homo sapiens, UniProt P11387); test: DNA relaxation assay on human topoisomerase I (gel based, supercoiled pBR322); format: biochemical; details: ±SD, n = 2; relaxation of supercoiled pBR322, 37 °C, 30 min, 10 % DMSO; read-out: IC50 [µM] Topo I
T1 construct: purchased Inspiralis Limited, UK (assay run by the vendor as a service)
T1 sequence (P11387 1-765): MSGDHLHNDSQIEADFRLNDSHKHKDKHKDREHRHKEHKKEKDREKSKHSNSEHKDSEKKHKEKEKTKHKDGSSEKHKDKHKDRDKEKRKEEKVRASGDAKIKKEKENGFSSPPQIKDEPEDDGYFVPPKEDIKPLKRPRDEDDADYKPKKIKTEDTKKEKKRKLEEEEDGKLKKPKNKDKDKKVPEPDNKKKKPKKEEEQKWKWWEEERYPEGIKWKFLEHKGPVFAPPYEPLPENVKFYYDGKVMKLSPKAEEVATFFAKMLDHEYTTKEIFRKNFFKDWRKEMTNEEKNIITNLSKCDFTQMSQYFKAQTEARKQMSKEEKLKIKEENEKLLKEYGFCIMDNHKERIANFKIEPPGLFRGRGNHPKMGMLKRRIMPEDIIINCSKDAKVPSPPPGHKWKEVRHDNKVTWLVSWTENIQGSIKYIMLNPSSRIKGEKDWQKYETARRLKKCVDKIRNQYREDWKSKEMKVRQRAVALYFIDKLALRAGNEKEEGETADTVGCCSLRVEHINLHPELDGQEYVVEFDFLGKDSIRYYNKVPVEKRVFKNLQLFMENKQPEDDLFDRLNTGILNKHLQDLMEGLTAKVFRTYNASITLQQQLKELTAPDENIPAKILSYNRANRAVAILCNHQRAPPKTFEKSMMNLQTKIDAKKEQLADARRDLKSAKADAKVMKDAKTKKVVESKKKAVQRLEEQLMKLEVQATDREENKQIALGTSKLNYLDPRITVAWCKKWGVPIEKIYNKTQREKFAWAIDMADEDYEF
Protocol: The relaxation assay on human topoisomerase I was carried out by Inspiralis Limited®, UK, according to their SOP (standard operating procedure). All compounds were dissolved in DMSO and then diluted to yield concentration ranges from 1 nM to 1 mM. […] 1 U (the amount of enzyme required to completely relax the substrate) was incubated with 0.5 µg supercoiled plasmid DNA (pBR322) at 37 °C for 30 min in a 30 µL reaction mixture of 20 mM Tris HCL (pH 7.5), 200 mM NaCl, 0.25 mM EDTA and 5 % glycerol. The reaction was stopped by adding 30 µL chloroform/iso-amyl alcohol (26:1) and 20 µL Stop Dye (40 % sucrose, 100 mM Tris HCl (pH 7.5), 10 mM EDTA, 0.5 μg/mL bromophenol blue) before being loaded on a 0.8 % TAE gel run for 2 h at 80 V. Then bands were visualized by ethidium staining for 10 min and analyzed by documentation equipment (Syngene, Cambridge, UK), gel scanning software (Syngene, GeneTools) and SigmaPlot version 12.3. All assays were carried out in a final DMSO concentration of 10 % and were performed twice.

[2] = tested on: HaCat: human keratinocyte cells; parameters: method as in PMID 24046217, PMID 25069157; details: ±SD; HaCaT human keratinocyte cells (non-tumorigenic); ref [3], [5], [10]; read-out: IC50 [µM] Cytotoxicity HaCaT; cited from earlier work
[3] = tested on: MCF-7: human breast cancer cells; parameters: method as in PMID 24046217, PMID 25069157; details: ±SD, ref [3], [5], [10], read-out: IC50 [µM] Cytotoxicity MCF-7; cited from earlier work
[4] = tested on: LN-18: human glioblastoma cells; parameters: method as in PMID 24046217, PMID 25069157; details: ±SD, ref [3], [5], [10], read-out: IC50 [µM] Cytotoxicity LN-18; cited from earlier work
[5] = tested on: 5637: human urinary bladder carcinoma cells; parameters: method as in PMID 24046217, PMID 25069157; details: ±SD, ref [3], [5], [10], read-out: IC50 [µM] Cytotoxicity 5637; cited from earlier work

Row | SMILES | IC50 [1] | IC50 [2] | IC50 [3] | IC50 [4] | IC50 [5]
1 | CC=C(C)C(=O)OC1CC(C)(C)CC2C3=CCC4C5(C)CCC(OC6OC(C(=O)O)C(OC7OC(CO)C(O)C7O)C(OC7OCC(O)C(O)C7O)C6OC6OC(CO)C(O)C(O)C6O)C(C)(C)C5CCC4(C)C3(C)C(O)C(O)C12CO (centres unmarked) [Compound 1, pittangretoside A] | 7.5 ± 0.6 µM | 15.2 ± 0.9 µM | 25.7 ± 1.9 µM | 7.6 ± 1.7 µM | 4.1 ± 1 µM
2 | CCC(C)C(=O)OC1C(OC(C)=O)C2(CO)C(CC1(C)C)C1=CCC3C4(C)CCC(OC5OC(C(=O)O)C(OC6OC(CO)C(O)C6O)C(OC6OCC(O)C(O)C6O)C5OC5OC(CO)C(O)C(O)C5O)C(C)(C)C4CCC3(C)C1(C)C(O)C2O (centres unmarked) [Compound 7, pittangretoside P] | 4.2 ± 0.2 µM | 11.2 ± 0.5 µM | 28.7 ± 3.2 µM | 7 ± 0.9 µM | 
3 | CCC(C)(OC(C)=O)C(=O)OC1C(OC(C)=O)C(C)(C)CC2C3=CCC4C5(C)CCC(OC6OC(C(=O)O)C(OC7OC(CO)C(O)C7O)C(OC7OCC(O)C(O)C7O)C6OC6OC(CO)C(O)C(O)C6O)C(C)(C)C5CCC4(C)C3(C)C(O)C(O)C21CO (centres unmarked) [Compound 6, pittangretoside O] | 7.5 ± 1.6 µM | 19.2 ± 2.1 µM | 22.9 ± 1.8 µM | 4.4 ± 0.7 µM | 
4 | CCC(C)C(=O)OC1CC(C)(C)CC2C3=CCC4C5(C)CCC(OC6OC(C(=O)O)C(OC7OC(CO)C(O)C7O)C(OC7OCC(O)C(O)C7O)C6OC6OC(CO)C(O)C(O)C6O)C(C)(C)C5CCC4(C)C3(C)C(O)C(O)C12CO (centres unmarked) [Compound 8] | 2.8 ± 1.1 µM |  |  | 3.9 ± 0.1 µM | 
5 | CC=C(C)C(=O)OC1C(OC(C)=O)C2(CO)C(CC1(C)C)C1=CCC3C4(C)CCC(OC5OC(C(=O)O)C(OC6OC(CO)C(O)C6O)C(OC6OCC(O)C(O)C6O)C5OC5OC(CO)C(O)C(O)C5O)C(C)(C)C4CCC3(C)C1(C)C(O)C2O (centres unmarked) [Compound 4, IIIA3] | 8.6 ± 0.1 µM | 15.9 ± 1.3 µM | 19.8 ± 2.2 µM | 13.4 ± 0.8 µM | 
6 | CC=C(C)C(=O)OC1C(OC(C)=O)C(C)(C)CC2C3=CCC4C5(C)CCC(OC6OC(C(=O)O)C(OC7OC(CO)C(O)C7O)C(OC7OCC(O)C(O)C7O)C6OC6OC(CO)C(O)C(O)C6O)C(C)(C)C5CCC4(C)C3(C)C(O)C(O)C21CO (centres unmarked) [Compound 5, pittangretoside N] | 6.5 ± 0.6 µM | 34.1 ± 2.8 µM | 28.7 ± 3.6 µM | 10.4 ± 2.7 µM | 
7 | CCC(C)C(=O)OCC12C(O)CC(C)(C)CC1C1=CCC3C4(C)CCC(OC5OC(C(=O)O)C(OC6OC(CO)C(O)C6O)C(OC6OCC(O)C(O)C6O)C5OC5OC(CO)C(O)C(O)C5O)C(C)(C)C4CCC3(C)C1(C)C(O)C2O (centres unmarked) [Compound 3, pittangretoside F] | 16.8 ± 0.4 µM |  |  |  | > 106 µM
8 | CC=C(C)C(=O)OC1CC(C)(C)CC2C3=CCC4C5(C)CCC(OC6OC(C(=O)O)C(O)C(O)C6OC6OC(CO)C(O)C(O)C6OC6OC(C)C(O)C(O)C6O)C(C)(C)C5CCC4(C)C3(C)C(O)C(O)C12CO (centres unmarked) [Compound 2, pittangretoside D] | 4.8 ± 2.4 µM | > 118 µM | 36.6 ± 5.7 µM | 35.7 ± 5.2 µM | 17.9 ± 1 µM
9 | CC=C(C)C(=O)OC1C(OC(=O)C(C)=CC)C2(CO)C(O)CC3(C)C(=CCC4C5(C)CCC(OC6OC(C(=O)O)C(OC7OC(CO)C(O)C7O)C(OC7OCC(O)C(O)C7O)C6OC6OC(CO)C(O)C(O)C6O)C(C)(C)C5CCC43C)C2CC1(C)C (centres unmarked) [Compound 10, pittangretoside T] | 5 ± 3.3 µM |  |  |  | 
10 | CC=C(C)C(=O)OC1C(OC(=O)C(C)=CC)C2(CO)C(CC1(C)C)C1=CCC3C4(C)CCC(OC5OC(C(=O)O)C(OC6OC(CO)C(O)C6O)C(OC6OCC(O)C(O)C6O)C5OC5OC(CO)C(O)C(O)C5O)C(C)(C)C4CCC3(C)C1(C)C(O)C2O (centres unmarked) [Compound 9, IIIC4] | 46.5 ± 11.5 µM | 2.2 ± 0.5 µM | 8.9 ± 0.8 µM | 4.6 ± 0.5 µM | 
